From article PMC7582905, “Effect of Disulfide Cyclization of Ultrashort Cationic Lipopeptides on Antimicrobial Activity and Cytotoxicity” (International Journal of Molecular Sciences, 2020)

Key:
[1] = system: Candida albicans ATCC 10231; assay: Transmission electron microscopy (TEM); type: cell-based; settings: 2 × MIC, 5.0 × 10^6 CFU/mL, 1 h at room temperature
Method: TEM was used to examine ultrastructural changes in the Candida albicans ATCC 10231 cells treated with selected lipopeptides (L2, C2, L4, C4) and melittin (positive control). Fungal cells (Candida albicans ATCC 10231) were incubated in RMPI-1640 overnight. The cells were centrifuged (3500 rpm, 7 min) and resuspended in fresh RMPI-1640 medium to obtain dense cell suspension (5.0 × 10^6 CFU/mL). The high cell-density culture was prepared to facilitate TEM observations. Peptides’ concentrations were 2 × MIC. Samples were incubated for 1 h at room temperature. Importantly, MIC of selected peptides (L2, C2, L4, C4, and melittin) were also determined with dense inoculum of yeasts (5.0 × 10^6 CFU/mL). After the treatment, the fungal cells were centrifuged (3500× rpm, 10 min) and washed twice with PBS. Fungal cells were fixed with 2.5% glutaraldehyde buffered at pH 6.5 with 0.1 M sodium cacodylate (Polysciences, Warrington, PA, USA) for 6 h at room temperature. Postfixation was performed with a 1% osmium tetroxide (Polysciences, Warrington, PA, USA) solution for 2 h at 4 °C. The cells were then centrifuged and resuspended in 0.1 M cacodylate buffer (pH 6.5). After re-centrifugation, cells were dehydrated with ethanol. Yeasts were embedded in Epon 812 resin (Sigma-Aldrich) at room temperature. An ultramicrotome Leica UC7 was used to prepare ultrathin sections (55 nm). […]

C. albicans (ATCC 10231) = settings: ref [5] Makovitzki et al.; cited from earlier work
Text: When a peptide is cyclic its antifungal activity is usually remarkably higher than that of the antibacterial activity as compared that of the linear parent molecules. The differences in antifungal and antibacterial (Gram-negative) activities between the cyclic and linear lipopeptides are statistically significant (p < 0.05). Makovitzki et al. have reported a high antimicrobial activity of C16-KKkK-NH2 (originally written as C16-KKKK-NH2; k/K—D-enantiomer) against P. aeruginosa, E. coli, and S. aureus (3–6.25 μM; approx. 2.3–4.8 μg/mL) being similar to that of lipopeptide 3. However, different ...

Compound | ultrastructural changes in TEM micrographs [1] | MIC C. albicans (ATCC 10231) (C. albicans (ATCC 10231)) [µM]
CC[C@H](C)[C@H](NC(=O)CN)C(=O)NCC(=O)N[C@@H](C)C(=O)N[C@H](C(=O)N[C@@H](CC(C)C)C(=O)N[C@@H](CCCCN)C(=O)N[C@H](C(=O)N[C@@H](CC(C)C)C(=O)N[C@H](C(=O)N[C@H](C(=O)NCC(=O)N[C@@H](CC(C)C)C(=O)N1CCC[C@H]1C(=O)N[C@@H](C)C(=O)N[C@@H](CC(C)C)C(=O)N[C@H](C(=O)N[C@@H](CO)C(=O)N[C@@H](Cc1c[nH]c2ccccc12)C(=O)N[C@H](C(=O)N[C@@H](CCCCN)C(=O)N[C@@H](CCCNC(=N)N)C(=O)N[C@@H](CCCCN)C(=O)N[C@@H](CCCNC(=N)N)C(=O)N[C@@H](CCC(N)=O)C(=O)N[C@@H](CCC(N)=O)C(N)=O)[C@@H](C)CC)[C@@H](C)CC)[C@@H](C)O)[C@@H](C)O)C(C)C)C(C)C [melittin, Melittin, reference compound] | numerous vesicles are visible inside and outside the cell | –
C16-KKkK-NH2 | – | 25
